One assay has as its target T1, CDK2/Cyclin E2 (Homo sapiens, UniProt P24941).
T1 construct: Recombinant protein complex CDK2/Cyclin E2, expressed from insect cell, was purchased from ProQinase
The assay can be described thus: CDK2/CyclinE2 Enzymatic Activity Assay (TR-FRET). The format is biochemical. Conditions: ATP 1 mM final, read-out: CDK2_E1 IC50. In a few lines:
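Recombinant insect-cell CDK2/Cyclin E2 (1 nM) phosphorylated ULight-4E-BP1 (50 nM) with 1 mM ATP in HEPES pH 7.4 buffer, after 20 min compound preincubation; MgCl2 (10 mM) started the 45 min reaction at 37° C. Europium anti-phospho-4E-BP1 TR-FRET read; 9-dose IC50 by 4-parameter fit.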

Another assay deals with T2, CDK4/Cyclin D1 (Homo sapiens, UniProt P11802).
T2 construct: purchased ProQinase; host or cells: insect cell
The assay can be described thus: CDK4/CyclinD1 Enzymatic Activity Assay (TR-FRET). Conditions: ATP 2 mM final, read-out: CDK4_D1 IC50. In kind it is biochemical. Summed up: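 Insect-cell-expressed CDK4/Cyclin D1 (1 nM) with ULight-4E-BP1 (100 nM) and 2 mM ATP in HEPES pH 7.4; 9-dose 3-fold compound series preincubated 20 min, reaction started with 10 mM MgCl2, 45 min at 37° C. Europium anti-P-4E-BP1 TR-FRET read; IC50 from 4-parameter Hill fit.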

For a further assay, the system named is OVCAR3 p-RB. The assay can be described thus: pRB ICW Assay in OVCAR3 Cells. The format is cell-based. The conditions noted are these: Homo sapiens, OVCAR-3, incubated with compound for 2 hours. Summed up: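 In-Cell Western on OVCAR3: phospho-RB antibody signal with DRAQ5 counterstain read at 700 and 800 nm after fixation. Compounds were applied for 2 h at 37° C. as 9-point ½-log dilutions in duplicate; 10 μM reference compound defined full inhibition.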

SMILES strings stand for the structures. pIC50: −log10 of the molar value.

T2 sequence (P11802 whole entry): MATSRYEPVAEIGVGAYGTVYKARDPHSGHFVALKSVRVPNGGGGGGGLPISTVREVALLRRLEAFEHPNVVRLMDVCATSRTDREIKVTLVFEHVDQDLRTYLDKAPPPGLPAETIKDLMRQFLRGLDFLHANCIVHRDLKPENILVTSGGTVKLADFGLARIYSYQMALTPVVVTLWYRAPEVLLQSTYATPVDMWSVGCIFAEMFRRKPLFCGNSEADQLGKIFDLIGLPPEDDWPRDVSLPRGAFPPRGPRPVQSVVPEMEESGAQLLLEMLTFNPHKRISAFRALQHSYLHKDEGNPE
T2 sequence (P24385 whole entry partner): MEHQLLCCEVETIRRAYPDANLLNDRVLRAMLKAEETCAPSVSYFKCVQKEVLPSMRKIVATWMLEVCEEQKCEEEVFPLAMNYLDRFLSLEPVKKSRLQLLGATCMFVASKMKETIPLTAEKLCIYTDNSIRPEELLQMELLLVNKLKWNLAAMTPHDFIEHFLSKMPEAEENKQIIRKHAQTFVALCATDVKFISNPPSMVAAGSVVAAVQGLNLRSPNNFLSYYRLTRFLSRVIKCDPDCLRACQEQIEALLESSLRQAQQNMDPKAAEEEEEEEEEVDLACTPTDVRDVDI

With `Cc1sc(-c2nc(NC3CCN(S(=O)(=O)c4c[nH]cn4)CC3)ncc2C(F)(F)F)cc1C#N` [Example 55, 5-(2-((1-((1H-imidazol-4-yl)sulfonyl)piperidin-4-yl)amino)-5-(trifluoromethyl)pyrimidin-4-yl)-2-methylthiophene-3-carbonitrile], the pIC50 was ≥ 7.00 on CDK2/Cyclin E2, ≥ 7.00 at CDK4/Cyclin D1 and 6.30 to 7.00 with OVCAR3 p-RB.
With `C[C@@H]1CN(S(=O)(=O)c2cnn(C)c2)CC[C@@H]1Nc1ncc(C(F)(F)F)c(-c2cc(C#N)c(CC(C)(C)O)s2)n1` [Example 38, 2-(2-hydroxy-2-methylpropyl)-5-(2-(((3R,4S)-3-methyl-1-((1-methyl-1H-pyrazol-4-yl)sulfonyl)piperidin-4-yl)amino)-5-(trifluoromethyl)pyrimidin-4-yl)thiophene-3-carbonitrile], the pIC50 on CDK2/Cyclin E2 is ≥ 7.00; on CDK4/Cyclin D1, 6.30 to 7.00; in the assay with OVCAR3 p-RB, 6.30 to 7.00.
As for `Cn1cnc(S(=O)(=O)N2CC[C@H](Nc3ncc(C(F)(F)F)c(-c4cc(C#N)c(CC(C)(C)O)s4)n3)[C@H](F)C2)c1` [Example 42, 5-(2-(((3R,4S)-3-fluoro-1-((1-methyl-1H-imidazol-4-yl)sulfonyl)piperidin-4-yl)amino)-5-(trifluoromethyl)pyrimidin-4-yl)-2-(2-hydroxy-2-methylpropyl)thiophene-3-carbonitrile], the pIC50 on CDK2/Cyclin E2, on CDK4/Cyclin D1 and with OVCAR3 p-RB was ≥ 7.00 throughout.
As to `C[C@@H]1CN(S(C)(=O)=O)CC[C@@H]1Nc1ncc(C(F)(F)F)c(-c2cc(C(N)=O)cs2)n1` [Example 10, 5-(2-(((3R,4S)-3-methyl-1-(methylsulfonyl)piperidin-4-yl)amino)-5-(trifluoromethyl)pyrimidin-4-yl)thiophene-3-carboxamide], the pIC50 was ≥ 7.00 on CDK2/Cyclin E2, 6.30 to 7.00 on CDK4/Cyclin D1 and 6.30 to 7.00 in the assay with OVCAR3 p-RB.
As to `Cc1cnc(-c2nc(N[C@@H]3CCN(S(=O)(=O)c4cn(C)cn4)C[C@H]3F)ncc2C(F)(F)F)s1` [Example 29, N-((3R,4R)-3-fluoro-1-((1-methyl-1H-imidazol-4-yl)sulfonyl)piperidin-4-yl)-4-(5-methylthiazol-2-yl)-5-(trifluoromethyl)pyrimidin-2-amine], the negative logarithm of the IC50 (pIC50) was ≥ 7.00 on CDK2/Cyclin E2, ≥ 7.00 on CDK4/Cyclin D1 and 6.30 to 7.00 in the assay on OVCAR3 p-RB.
Turning to `CC(O)c1sc(-c2nc(N[C@@H]3CCN(S(=O)(=O)c4cnn(C)c4)C[C@H]3F)ncc2C(F)(F)F)cc1C#N` (stereo partly drawn) [Example 36, 5-(2-(((3R,4R)-3-fluoro-1-((1-methyl-1H-pyrazol-4-yl)sulfonyl)piperidin-4-yl)amino)-5-(trifluoromethyl)pyrimidin-4-yl)-2-(1-hydroxyethyl)thiophene-3-carbonitrile], the pIC50 at CDK2/Cyclin E2, at CDK4/Cyclin D1 and in the assay with OVCAR3 p-RB was ≥ 7.00 in each case.
For the compound `CC(O)c1cnc(-c2nc(N[C@H]3CCN(S(=O)(=O)c4cnn(C)c4)C[C@H]3F)ncc2C(F)(F)F)s1` (stereo partly drawn) [Example 114, 1-(2-(2-(((3R,4S)-3-fluoro-1-((1-methyl-1H-pyrazol-4-yl)sulfonyl)piperidin-4-yl)amino)-5-(trifluoromethyl)pyrimidin-4-yl)thiazol-5-yl)ethan-1-ol], the pIC50 on CDK2/Cyclin E2 was ≥ 7.00; on CDK4/Cyclin D1, ≥ 7.00; with OVCAR3 p-RB, 6.30 to 7.00.
For the compound `CS(=O)(=O)N1CC[C@@H](Nc2ncc(C(F)(F)F)c(-c3cc(C(N)=O)cs3)n2)[C@H](F)C1` [Example 6, 5-(2-(((3R,4R)-3-fluoro-1-(methylsulfonyl)piperidin-4-yl)amino)-5-(trifluoromethyl)pyrimidin-4-yl)thiophene-3-carboxamide], the negative-log IC50 (pIC50) on CDK2/Cyclin E2, on CDK4/Cyclin D1 and with OVCAR3 p-RB was ≥ 7.00 each time.
In the case of `Cn1cnc(S(=O)(=O)N2CC[C@H](Nc3ncc(C(F)(F)F)c(-c4cc(C(N)=O)ns4)n3)[C@H](F)C2)c1` [Example 67, 5-(2-(((3R,4S)-3-fluoro-1-((1-methyl-1H-imidazol-4-yl)sulfonyl)piperidin-4-yl)amino)-5-(trifluoromethyl)pyrimidin-4-yl)isothiazole-3-carboxamide], the pIC50 at CDK2/Cyclin E2, at CDK4/Cyclin D1 and in the assay on OVCAR3 p-RB was ≥ 7.00 each time.
Turning to `Cc1sc(-c2nc(NC3CCN(S(C)(=O)=O)CC3)ncc2C(F)(F)F)cc1C(N)=O` [Example 70, 2-methyl-5-(2-((1-(methylsulfonyl)piperidin-4-yl)amino)-5-(trifluoromethyl)pyrimidin-4-yl)thiophene-3-carboxamide], the pIC50 at CDK2/Cyclin E2, on CDK4/Cyclin D1 and with OVCAR3 p-RB was ≥ 7.00 in each case.
For the compound `Cc1sc(-c2nc(N[C@H]3CCN(S(=O)(=O)c4c[nH]cn4)C[C@H]3C)ncc2C(F)(F)F)cc1C#N` [Example 86, 5-(2-(((3R,4S)-1-((1H-imidazol-4-yl)sulfonyl)-3-methylpiperidin-4-yl)amino)-5-(trifluoromethyl)pyrimidin-4-yl)-2-methylthiophene-3-carbonitrile], the pIC50 at CDK2/Cyclin E2 is ≥ 7.00; on CDK4/Cyclin D1, < 6.30; in the assay on OVCAR3 p-RB, < 6.30.
For `CC(O)c1sc(-c2nc(N[C@H]3CCN(S(=O)(=O)c4cnn(C)c4)C[C@H]3F)ncc2C(F)(F)F)cc1C#N` (stereo partly drawn) [Example 34, 5-(2-(((3R,4S)-3-fluoro-1-((1-methyl-1H-pyrazol-4-yl)sulfonyl)piperidin-4-yl)amino)-5-(trifluoromethyl)pyrimidin-4-yl)-2-(1-hydroxyethyl)thiophene-3-carbonitrile], the negative-log IC50 (pIC50) on CDK2/Cyclin E2, on CDK4/Cyclin D1 and in the assay on OVCAR3 p-RB was ≥ 7.00 each time.

Usually pIC50 stands for −log10 of the IC50, conventionally taken in molar units.

For the origin of these results see patent publication US20240150340A1, “CDK Inhibitors And Their Use As Pharmaceuticals” (Prelude Therapeutics Incorporated, priority 2022, published 2024).
